Assay type in all cases: cell-based, human
In one experiment the test system is HTT mRNA. The experiment can be described thus: RT-qPCR splicing assay, HTT canonical (CJ) and alternative (AJ) junction mRNA. The conditions noted are these: Homo sapiens; for AC50: read-out: HTT AJ (AC50, increase in AJ mRNA). The method, boiled down: (§1)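 CJ and AJ junction levels were quantified by RT-qPCR on lysates, with housekeeper ΔCt normalized to DMSO (ΔΔCt) and expressed as RQ = 2^(-ΔΔCt). Before lysis, K562 or A673 cells had 24 h compound exposure at 37 °C. Dosing was 11 points, 3-fold, from 10 uM final, with DMSO at most 0.25%.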
A general note: Quantitative PCR measures a nucleic acid by following its amplification.

For a further experiment, the system named is MYB mRNA. The experiment can be described thus: RT-qPCR splicing assay, MYB canonical (CJ) and alternative (AJ) junction mRNA. Conditions: Homo sapiens; for AC50: read-out: MYB AJ (AC50, increase in AJ mRNA). The method, boiled down:
as §1

Another experiment concerns SMN2 mRNA. The experiment can be described thus: RT-qPCR splicing assay panel, SMN2 canonical junction (CJ) mRNA. The conditions noted are these: Homo sapiens, canonical junction (CJ) mRNA, RT-qPCR panel, Table 4A; read-out: SMN2, decrease in CJ mRNA levels, IC50. The method, boiled down:
as §1

The next experiment deals with Target C mRNA. The experiment can be described thus: RT-qPCR splicing assay panel, Target C canonical junction (CJ) mRNA. The conditions noted are these: Homo sapiens, canonical junction (CJ) mRNA, RT-qPCR panel, Table 4A; read-out: Target C, decrease in CJ mRNA levels, IC50. The method, boiled down: as §1
Setting [1] is: 24 h, Table 3A, A673 or K562 cells, 24 h treatment.
The mark [2] stands for this setting: 24 h, Table 3A, A673 or K562 cells, 24 h treatment, read-out: HTT CJ (IC50, decrease in CJ mRNA).
Setting [3] is: canonical junction (CJ) mRNA, RT-qPCR panel, Table 4A, read-out: HTT, decrease in CJ mRNA levels, IC50.
Setting [4] is: 24 h, Table 3A, A673 or K562 cells, 24 h treatment, read-out: MYB CJ (IC50, decrease in CJ mRNA).
The mark [5] stands for this setting: canonical junction (CJ) mRNA, RT-qPCR panel, Table 4A, read-out: MYB, decrease in CJ mRNA levels, IC50.

These results are taken from US20250333397A1 (REMIX THERAPEUTICS INC., priority 2021, published 2025).

Read-outs that look alike come from different tables or passages of the source.

In general, AC50 refers to the midpoint of the concentration-response curve, whichever way the signal moves. The IC50 is the concentration at which inhibition is half-maximal.

For the compound `Cc1nc(C)c(-c2cc(O)c(-c3ccc(N4CC[C@@H](NC5CCC5)C4)nn3)cc2F)s1` [Compound 387], the AC50 in the experiment on HTT mRNA (setting [1]) and in the experiment on MYB mRNA (setting [1]) was 1000 to 10000 nM throughout. The IC50 lay in the range of 100 to 1000 nM with HTT mRNA (setting [2]); 100 to 1000 nM in the experiment on HTT mRNA (setting [3]); 1000 to 10000 nM in the experiment on MYB mRNA (setting [4]); 1000 to 10000 nM in the experiment on MYB mRNA (setting [5]); 100 to 1000 nM in the experiment on SMN2 mRNA; 1000 to 10000 nM with Target C mRNA.
In the case of `Oc1cc(-c2cn[nH]c2)c(F)cc1-c1ccc(N2CCC(NC3CC3)C2)nn1` (stereo in doubt) [Compound 105, 2-{6-[(3R)-3-(cyclopropylamino)pyrrolidin-1-yl]pyridazin-3-yl}-4-fluoro-5-(1H-pyrazol-4-yl)phenol], the AC50 in the experiment on HTT mRNA (setting [1]) is < 100 nM; in the experiment with MYB mRNA (setting [1]), 100 to 1000 nM. The IC50 with HTT mRNA (setting [2]) is < 100 nM; with HTT mRNA (setting [3]), < 100 nM; in the experiment on MYB mRNA (setting [4]) it was 100 to 1000 nM; in the experiment on MYB mRNA (setting [5]) it was 100 to 1000 nM; in the experiment with SMN2 mRNA, < 100 nM; with Target C mRNA, < 100 nM.
